Calls of active or inactive are those of the source. No cut-off for these calls is given here.
What was measured:
[1] = target: T1, Metabotropic glutamate receptor 4 (Homo sapiens, UniProt Q14833); test: Positive allosteric modulation of human mGlu4 receptor expressed in CHO cells coexpressing Gqi5 assessed as potentiation of glutamate-induced calcium mobilization at 30 uM relative to (-)-PHCCC; assay type: functional, cell-based
[2] = target: T1, Metabotropic glutamate receptor 4; test: Positive allosteric modulator activity at human mGlu4 receptor expressed in CHO cells expressing Gqi5 by calcium mobilization assay; assay type: functional, cell-based
Rattus norvegicus [3] = test: Reversal of haloperidol-induced catalepsy in Sprague-Dawley rat at 10 mg/kg, po administered 60 mins after haloperidol-challenge measured after 30 mins; assay type: functional, organism-based
Rattus norvegicus [4] = test: Reversal of haloperidol-induced catalepsy in Sprague-Dawley rat at 1 mg/kg, po administered 60 mins after haloperidol-challenge measured after 30 mins; assay type: functional, organism-based
[5] = Intrinsic clearance in human hepatic microsomes; assay type: ADME, Liver; settings: read-out: CLH
Brain [6] = test: Partition coefficient in brain of Sprague-Dawley rat model of haloperidol-induced catalepsy at 1 mg/kg, po administered 60 mins after haloperidol-challenge measured after 30 mins; assay type: ADME, organism-based; settings: 0.5 h
Plasma = test: Fraction unbound in rat plasma; assay type: ADME, cell-free
[7] = Volume of distribution at steady state in Sprague-Dawley rat by LC/MS analysis; assay type: ADME, organism-based; settings: in vivo, read-out: Vdss
[8] = Drug level in brain of Sprague-Dawley rat model of haloperidol-induced catalepsy at 1 mg/kg, po administered 60 mins after haloperidol-challenge measured after 30 mins; assay type: ADME, organism-based; settings: read-out: Drug uptake
Cytochrome P450 1A2 = target: T2, Cytochrome P450 1A2 (Homo sapiens, UniProt P05177); test: Inhibition of CYP1A2 in human liver microsomes using acetaminophen as substrate; assay type: ADME
T2 sequence (P05177 whole entry): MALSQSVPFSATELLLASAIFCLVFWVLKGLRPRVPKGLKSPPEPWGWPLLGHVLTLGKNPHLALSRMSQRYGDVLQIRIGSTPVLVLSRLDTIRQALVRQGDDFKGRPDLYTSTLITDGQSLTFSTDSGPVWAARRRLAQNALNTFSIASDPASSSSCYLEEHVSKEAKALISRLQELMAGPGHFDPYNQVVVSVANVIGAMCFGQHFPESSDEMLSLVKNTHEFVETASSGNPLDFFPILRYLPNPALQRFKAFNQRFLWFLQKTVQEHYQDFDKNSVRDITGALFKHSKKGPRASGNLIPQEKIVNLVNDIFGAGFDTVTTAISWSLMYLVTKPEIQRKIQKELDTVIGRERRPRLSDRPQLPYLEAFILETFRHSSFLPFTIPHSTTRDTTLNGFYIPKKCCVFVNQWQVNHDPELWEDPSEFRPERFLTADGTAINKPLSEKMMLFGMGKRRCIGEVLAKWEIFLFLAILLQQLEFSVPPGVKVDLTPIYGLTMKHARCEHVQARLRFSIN

Cytochrome P450 3A4 = Cytochrome P450 3A4 (Homo sapiens, UniProt P08684); test: Inhibition of CYP3A4 in human liver microsomes using 1-hydroxymidazolam as substrate; assay type: ADME
[9] = Half life in Sprague-Dawley rat by LC/MS analysis; assay type: ADME, organism-based; settings: in vivo
[10] = target: Metabotropic glutamate receptor 4 (Rattus norvegicus, UniProt P31423); test: Positive allosteric modulator activity at rat mGlu4 receptor
[11] = Intrinsic clearance in rat hepatic microsomes; assay type: ADME, Liver; settings: read-out: CLH
[12] = Clearance in Sprague-Dawley rat by LC/MS analysis; assay type: ADME, organism-based; settings: in vivo
[13] = Ratio of drug level in brain of Sprague-Dawley rat model of haloperidol-induced catalepsy at 1 mg/kg, po to EC50 for positive allosteric modulator activity at rat mGlu4 receptor
[14] = Ratio of drug level in brain to plasma in rat at 0.25 mg/kg, iv infused at 0.25 hr rate through cassette dosing schedule; assay type: ADME, organism-based
Cytochrome P450 2C9 = Cytochrome P450 2C9 (Homo sapiens, UniProt P11712); test: Inhibition of CYP2C9 in human liver microsomes using 4-hydroxydiclofenac as substrate; assay type: ADME
Cytochrome P450 2D6 = Cytochrome P450 2D6 (Homo sapiens, UniProt P10635); test: Inhibition of CYP2D6 in human liver microsomes using dextrophan tartarate as substrate; assay type: ADME
[15] = Binding affinity to human P-gp assessed as efflux ratio by cell based assay; assay type: ADME
[16] = Fraction unbound in human plasma; assay type: ADME, cell-free
Rattus norvegicus [17] = test: Reversal of haloperidol-induced catalepsy in orally dosed Sprague-Dawley rat administered 60 mins after haloperidol-challenge measured after 30 mins; assay type: functional; settings: po, read-out: MED
[18] = Ratio of drug level in brain of Sprague-Dawley rat model of haloperidol-induced catalepsy at 1 to 10 mg/kg, po to EC50 for positive allosteric modulator activity at rat mGlu4 receptor
Brain [19] = test: Partition coefficient in brain of Sprague-Dawley rat model of haloperidol-induced catalepsy at 1 to 10 mg/kg, po administered 60 mins after haloperidol-challenge measured after 30 mins; assay type: ADME, organism-based; settings: 0.5 h
[20] = Drug level in brain of Sprague-Dawley rat model of haloperidol-induced catalepsy at 1 to 10 mg/kg, po administered 60 mins after haloperidol-challenge measured after 30 mins; assay type: ADME, organism-based; settings: read-out: Drug uptake
Rattus norvegicus [21] = test: Reversal of haloperidol-induced catalepsy in Sprague-Dawley rat at 3 mg/kg, po administered 60 mins after haloperidol-challenge measured after 30 mins; assay type: functional, organism-based

T1 sequence (Q14833 whole entry): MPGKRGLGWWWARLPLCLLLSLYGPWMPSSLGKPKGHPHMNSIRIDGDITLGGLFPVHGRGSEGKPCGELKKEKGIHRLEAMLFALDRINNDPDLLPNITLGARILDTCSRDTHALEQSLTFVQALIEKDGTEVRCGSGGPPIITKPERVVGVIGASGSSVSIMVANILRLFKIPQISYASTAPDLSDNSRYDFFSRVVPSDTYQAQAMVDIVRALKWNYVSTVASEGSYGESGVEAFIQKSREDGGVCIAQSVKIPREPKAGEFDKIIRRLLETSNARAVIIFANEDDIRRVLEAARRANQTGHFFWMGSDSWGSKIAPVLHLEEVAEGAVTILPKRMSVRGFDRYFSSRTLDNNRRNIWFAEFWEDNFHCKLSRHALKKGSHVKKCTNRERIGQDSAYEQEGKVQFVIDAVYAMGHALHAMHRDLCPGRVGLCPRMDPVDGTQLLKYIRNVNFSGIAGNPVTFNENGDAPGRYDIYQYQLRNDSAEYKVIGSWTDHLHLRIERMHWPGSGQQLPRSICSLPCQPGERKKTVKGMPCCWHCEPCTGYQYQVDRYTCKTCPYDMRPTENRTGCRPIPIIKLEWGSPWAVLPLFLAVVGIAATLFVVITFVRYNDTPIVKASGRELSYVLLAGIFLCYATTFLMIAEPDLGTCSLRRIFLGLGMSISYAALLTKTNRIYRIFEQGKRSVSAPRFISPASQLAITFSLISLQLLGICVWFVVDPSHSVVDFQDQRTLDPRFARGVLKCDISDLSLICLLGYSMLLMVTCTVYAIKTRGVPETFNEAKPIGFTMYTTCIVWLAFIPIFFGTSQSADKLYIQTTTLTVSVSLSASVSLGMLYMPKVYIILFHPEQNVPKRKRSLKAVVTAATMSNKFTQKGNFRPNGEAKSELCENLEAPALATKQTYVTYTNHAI
Chain of Cytochrome P450 2D6 (P10635 whole entry): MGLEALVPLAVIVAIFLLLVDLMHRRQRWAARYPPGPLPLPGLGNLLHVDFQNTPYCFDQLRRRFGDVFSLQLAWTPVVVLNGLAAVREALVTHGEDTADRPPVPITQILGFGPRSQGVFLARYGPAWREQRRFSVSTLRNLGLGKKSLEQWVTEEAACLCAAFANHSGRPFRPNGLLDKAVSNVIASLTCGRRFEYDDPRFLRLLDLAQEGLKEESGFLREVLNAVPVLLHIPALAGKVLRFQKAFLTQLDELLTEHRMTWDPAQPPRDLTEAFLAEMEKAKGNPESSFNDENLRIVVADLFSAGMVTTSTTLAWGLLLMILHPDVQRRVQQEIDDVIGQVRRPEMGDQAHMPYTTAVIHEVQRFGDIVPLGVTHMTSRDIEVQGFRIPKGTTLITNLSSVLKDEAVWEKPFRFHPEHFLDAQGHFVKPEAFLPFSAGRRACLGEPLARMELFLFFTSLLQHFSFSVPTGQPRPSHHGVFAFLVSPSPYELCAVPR
Chain of Cytochrome P450 2C9 (P11712 whole entry): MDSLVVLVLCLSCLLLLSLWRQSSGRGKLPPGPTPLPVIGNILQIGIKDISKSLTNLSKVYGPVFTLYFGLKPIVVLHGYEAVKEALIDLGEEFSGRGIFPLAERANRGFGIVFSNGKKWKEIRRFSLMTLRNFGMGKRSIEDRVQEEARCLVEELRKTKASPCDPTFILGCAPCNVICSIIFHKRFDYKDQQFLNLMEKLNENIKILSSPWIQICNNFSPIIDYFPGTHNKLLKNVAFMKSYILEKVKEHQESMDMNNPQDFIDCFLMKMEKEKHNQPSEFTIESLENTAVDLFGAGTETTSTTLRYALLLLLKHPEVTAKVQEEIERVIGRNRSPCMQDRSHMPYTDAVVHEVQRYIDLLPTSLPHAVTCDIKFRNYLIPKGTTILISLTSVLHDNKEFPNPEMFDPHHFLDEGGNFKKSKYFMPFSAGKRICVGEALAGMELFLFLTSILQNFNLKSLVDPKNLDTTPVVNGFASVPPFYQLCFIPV
Chain of Cytochrome P450 3A4 (P08684 whole entry): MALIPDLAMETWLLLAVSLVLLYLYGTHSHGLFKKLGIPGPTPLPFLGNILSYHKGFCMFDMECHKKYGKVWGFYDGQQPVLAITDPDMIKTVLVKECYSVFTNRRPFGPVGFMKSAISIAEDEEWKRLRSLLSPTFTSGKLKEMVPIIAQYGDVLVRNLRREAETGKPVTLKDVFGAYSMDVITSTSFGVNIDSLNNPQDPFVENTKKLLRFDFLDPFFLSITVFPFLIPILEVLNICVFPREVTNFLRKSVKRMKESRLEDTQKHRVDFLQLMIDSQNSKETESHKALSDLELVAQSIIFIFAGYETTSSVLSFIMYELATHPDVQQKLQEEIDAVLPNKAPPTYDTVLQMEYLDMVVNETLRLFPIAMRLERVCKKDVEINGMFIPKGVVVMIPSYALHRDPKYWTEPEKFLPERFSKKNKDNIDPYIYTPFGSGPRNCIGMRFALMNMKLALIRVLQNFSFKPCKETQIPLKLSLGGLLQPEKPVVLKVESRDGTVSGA
Chain of Metabotropic glutamate receptor 4 (Rattus norvegicus, UniProt P31423) (P31423 whole entry): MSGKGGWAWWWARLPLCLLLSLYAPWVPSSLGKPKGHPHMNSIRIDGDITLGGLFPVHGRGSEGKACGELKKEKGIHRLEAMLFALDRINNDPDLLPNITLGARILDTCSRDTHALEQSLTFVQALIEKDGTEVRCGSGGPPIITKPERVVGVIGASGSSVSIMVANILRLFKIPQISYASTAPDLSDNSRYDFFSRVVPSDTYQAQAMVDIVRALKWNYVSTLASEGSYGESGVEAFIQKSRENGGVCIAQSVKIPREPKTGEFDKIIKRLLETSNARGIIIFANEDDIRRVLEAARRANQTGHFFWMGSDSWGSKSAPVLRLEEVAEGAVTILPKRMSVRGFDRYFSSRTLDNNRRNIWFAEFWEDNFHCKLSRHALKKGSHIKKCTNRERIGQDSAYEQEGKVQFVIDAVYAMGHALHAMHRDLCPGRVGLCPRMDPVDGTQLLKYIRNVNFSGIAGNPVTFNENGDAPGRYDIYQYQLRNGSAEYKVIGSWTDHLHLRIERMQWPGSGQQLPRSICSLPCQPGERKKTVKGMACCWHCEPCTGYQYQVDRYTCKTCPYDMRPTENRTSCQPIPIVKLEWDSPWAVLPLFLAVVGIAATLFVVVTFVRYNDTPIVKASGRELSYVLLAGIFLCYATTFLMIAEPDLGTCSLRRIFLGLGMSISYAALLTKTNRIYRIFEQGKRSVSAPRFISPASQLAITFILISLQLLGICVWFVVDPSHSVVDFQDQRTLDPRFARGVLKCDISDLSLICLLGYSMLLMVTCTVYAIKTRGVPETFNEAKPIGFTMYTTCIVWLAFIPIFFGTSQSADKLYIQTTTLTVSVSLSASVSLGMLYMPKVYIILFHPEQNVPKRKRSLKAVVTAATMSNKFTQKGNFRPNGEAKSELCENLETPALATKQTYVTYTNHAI

SMILES | %max [1] | EC50 ([2]; read-out: EC50) | EC50 ([2]; read-out: pEC50 (converted)) | further results
Nc1cccnc1C(=O)Nc1ccc(N2Cc3ccc(Cl)cc3C2=O)c(Cl)c1 | 42.3% | > 10000 nM | – | –
O=C(Nc1ccc(N2C(=O)c3ccccc3C2=O)c(Cl)c1)c1ncccc1O | 115% | 125 nM | – | –
CC1(C)CC(=O)N(c2ccc(NC(=O)c3ncccc3N)cc2Cl)C1 | 12.7% | > 10000 nM | – | –
Nc1cccnc1C(=O)Nc1ccc(N2CCc3ccccc3C2=O)c(Cl)c1 | 60.7% | – | 912 nM | –
CCc1cnc(Oc2ccc(NC(=O)c3nccnc3N)cc2Cl)nc1 | 104% | 296 nM | – | –
Fc1ccc(Nc2n[nH]c3cccnc23)cc1Cl | – | – | – | Activity (Rattus norvegicus [3]): Active; Activity (Rattus norvegicus [4]): Active
Nc1cccnc1C(=O)Nc1ccc(N2CCCC2=O)c(Cl)c1 | 39.6% | > 10000 nM | – | –
Nc1cccnc1C(=O)Nc1cccc(Cl)c1 | 88.1% | 587 nM | 575 nM | –
Nc1cccnc1C(=O)Nc1ccc(N2C(=O)C3CCC2C3)c(Cl)c1 (stereo not given) | 47.7% | > 10000 nM | – | –
Nc1cccnc1C(=O)Nc1ccc(N2CC3(CCCCC3)CC2=O)c(Cl)c1 | 52% | – | 1290 nM | –
Nc1cccnc1C(=O)Nc1ccc(N2CC(c3c(F)cccc3Cl)CC2=O)c(Cl)c1 (stereo not given) | 75.9% | – | 1860 nM | –
Nc1cccnc1C(=O)Nc1ccc(N2CC(c3cccnc3)CC2=O)c(Cl)c1 (stereo not given) | 92.8% | – | 2510 nM | –
COc1ccc2c(c1)C(=O)N(c1ccc(NC(=O)c3ncccc3N)cc1Cl)C2 | 71.7% | – | 316 nM | –
CC(C)CC1CC(=O)N(c2ccc(NC(=O)c3ncccc3N)cc2Cl)C1 (stereo not given) | 74.5% | – | 1620 nM | –
Nc1cccnc1C(=O)Nc1ccc(N2C(=O)c3ccccc3C2=O)c(Cl)c1 | 89.1% | – | 95.5 nM | CLint scaled [5]: 5.8 mL/min/kg; Kp (Brain [6]): 0.3; Fu (Plasma): 0.003; Vd [7]: 0.85 L/kg; Activity (Rattus norvegicus [4]): Active; concentration at 0.5 h [8]: 334 nM; IC50 (Cytochrome P450 1A2): > 30000 nM; IC50 (Cytochrome P450 3A4): > 30000 nM; half-life [9]: 3.7 h; EC50 [10]: 128 nM; CLint scaled [11]: 51 mL/min/kg; clearance [12]: 3.98 mL/min/kg; Ratio [13]: 2; Kp [14]: 1.31; IC50 (Cytochrome P450 2C9): 7200 nM; IC50 (Cytochrome P450 2D6): > 30000 nM; Ratio [15]: 1.2; Fu [16]: 0.007
Nc1cccnc1C(=O)Nc1ccc(N2CC(Cc3ccccc3)CC2=O)c(Cl)c1 (stereo not given) | 45.3% | – | 759 nM | –
Cc1ncc(Oc2ccc(NC(=O)c3ncccc3N)cc2Cl)cn1 | 89.8% | – | 1350 nM | –
CCc1cnc(Oc2ccc(NC(=O)c3ncccc3N)cc2Cl)nc1 | 97.9% | – | 64.6 nM | minimal effective dose (Rattus norvegicus [17]): 1 mg/kg; CLint scaled [5]: 17.7 mL/min/kg; Fu (Plasma): 0.004; Vd [7]: 0.86 L/kg; IC50 (Cytochrome P450 1A2): 2600 nM; Ratio [18]: 3.5; IC50 (Cytochrome P450 3A4): 21100 nM; half-life [9]: 1.5 h; EC50 [10]: 46.6 nM; CLint scaled [11]: 46.1 mL/min/kg; Kp (Brain [19]): 0.2; concentration at 0.5 h [20]: 172 nM; clearance [12]: 13.7 mL/min/kg; Kp [14]: 0.36; IC50 (Cytochrome P450 2C9): > 30000 nM; IC50 (Cytochrome P450 2D6): > 30000 nM; Activity (Rattus norvegicus [21]): Active; Ratio [15]: 1.9; Fu [16]: 0.004
Nc1cccnc1C(=O)Nc1ccc(N2CC3(CCCC3)CC2=O)c(Cl)c1 | 13.8% | > 10000 nM | – | –
Nc1cccnc1C(=O)Nc1ccc(N2Cc3ncccc3C2=O)c(Cl)c1 | 68.9% | – | 1260 nM | –
Nc1cccnc1C(=O)Nc1ccc(N2Cc3ccccc3C2=O)c(Cl)c1 | 43.9% | – | 234 nM | –
CC1(C2CC2)CC(=O)N(c2ccc(NC(=O)c3ncccc3N)cc2Cl)C1 (stereo not given) | 66.2% | – | 2820 nM | –
CCc1cnc(Oc2ccc(NC(=O)c3ccncc3N)cc2Cl)nc1 | 44.2% | > 10000 nM | – | –
CC1c2ccccc2C(=O)N1c1ccc(NC(=O)c2ncccc2N)cc1Cl (stereo not given) | 76.8% | – | 3980 nM | –
Nc1cccnc1C(=O)Nc1ccc(N2Cc3ccccc3CC2=O)c(Cl)c1 | 63.2% | – | 2190 nM | –
Cc1cccc2c1C(=O)N(c1ccc(NC(=O)c3ncccc3N)cc1Cl)C2=O | 122% | – | 692 nM | –

— ChEMBL document CHEMBL3797196, “Discovery of 3-aminopicolinamides as metabotropic glutamate receptor subtype 4 (mGlu4) positive allosteric modulator warheads engendering CNS exposure and in vivo efficacy” (Bioorg Med Chem Lett, 2016)
